Data published in patent publication US10544153B2, “Benzoic acid, benzoic acid derivatives and heteroaryl carboxylic acid conjugates of oxycodone, prodrugs, methods of making and use thereof” (KemPharm, Inc., priority 2014, dated 2020).

test: Tamper resistance: percent of OC released under tampering conditions, LC-MS/MS; type: physicochemical; conditions: 1N HCl, RT, 1 hour
Procedure: Effective abuse deterrent forms of drugs of abuse can also be resistant to chemical tampering. The prodrugs in the present technology also impart this characteristic. Several common tampering scenarios were employed and percent of OC released were determined by liquid chromatography with tandem mass spectrometry (LC-MS/MS). The results as shown in Table 7 indicated a very high degree of tamper resistance in the example OC prodrugs, releasing little to no OC.

Question: Which “percent of OC released” value does the source give for `COc1ccc2c3c1O[C@H]1C(OC(=O)/C=C/c4ccccc4)=CC[C@@]4(OC(=O)/C=C/c5ccccc5)[C@@H](C2)N(C)CC[C@]314` [(Cin)2-OC] here?
Answer: 0%

Question: With `COc1ccc2c3c1OC1C(OC(=O)C(C)c4cccc(C(=O)c5ccccc5)c4)=CCC4(O)C(C2)N(C)CCC314` (mixture of isomers) [6-Ketoprofen-OC] as the compound, how does the “percent of OC released” value read?
Answer: 2%

Question: For `COc1ccc2c3c1O[C@H]1C(OC(=O)c4ccc(O)cc4)=CC[C@@]4(OC(=O)c5ccc(O)cc5)[C@@H](C2)N(C)CC[C@]314` [(4-OH-Bz)2-OC], which “percent of OC released” value is on record?
Answer: 0%

Question: For `COc1ccc2c3c1O[C@H]1C(OC(=O)c4ccccc4O)=CC[C@@]4(O)[C@@H](C2)N(C)CC[C@]314` [Conjugate 2-OH-Bz-OC], which “percent of OC released” value is on record?
Answer: 0%

Question: With `COc1ccc2c3c1O[C@H]1C(OC(=O)c4ccccc4)=CC[C@@]4(OC(=O)c5ccccc5)[C@@H](C2)N(C)CC[C@]314` [(Bz)2-OC] as the compound, how does the “percent of OC released” value read?
Answer: 0%

Question: With `COc1ccc2c3c1O[C@H]1C(OC(=O)c4cccc(O)c4)=CC[C@@]4(O)[C@@H](C2)N(C)CC[C@]314` [Conjugate 3-OH-Bz-OC] as the compound, how does the “percent of OC released” value read?
Answer: <1%

Question: For `COc1ccc2c3c1O[C@H]1C(OC(=O)c4cccc(N)c4)=CC[C@@]4(OC(=O)c5cccc(N)c5)[C@@H](C2)N(C)CC[C@]314` [(3-ABz)2-OC], which “percent of OC released” value is on record?
Answer: 0%

Question: With `COc1ccc2c3c1O[C@H]1C(OC(=O)c4ccccc4N)=CC[C@@]4(O)[C@@H](C2)N(C)CC[C@]314` [Conjugate 2-ABz-OC] as the compound, how does the “percent of OC released” value read?
Answer: 0%

Question: For `COc1cc(C(=O)OC2=CC[C@@]3(O)[C@H]4Cc5ccc(OC)c6c5[C@@]3(CCN4C)[C@H]2O6)ccc1O` [4-OH-3-MeO-Bz-OC], which “percent of OC released” value is on record?
Answer: 0%

same assay, conditions: 5% Bicarbonate, RT, 1 hour

Question: For `COc1ccc2c3c1O[C@H]1C(OC(=O)/C=C/c4ccccc4)=CC[C@@]4(OC(=O)/C=C/c5ccccc5)[C@@H](C2)N(C)CC[C@]314` [(Cin)2-OC], which “percent of OC released” value is on record?
Answer: 0%

Question: For `COc1ccc2c3c1OC1C(OC(=O)C(C)c4cccc(C(=O)c5ccccc5)c4)=CCC4(O)C(C2)N(C)CCC314` (mixture of isomers) [6-Ketoprofen-OC], which “percent of OC released” value is on record?
Answer: 3%

Question: With `COc1ccc2c3c1O[C@H]1C(OC(=O)c4ccc(O)cc4)=CC[C@@]4(OC(=O)c5ccc(O)cc5)[C@@H](C2)N(C)CC[C@]314` [(4-OH-Bz)2-OC] as the compound, how does the “percent of OC released” value read?
Answer: 0%

Question: With `COc1ccc2c3c1O[C@H]1C(OC(=O)c4ccccc4O)=CC[C@@]4(O)[C@@H](C2)N(C)CC[C@]314` [Conjugate 2-OH-Bz-OC] as the compound, how does the “percent of OC released” value read?
Answer: 5%

Question: With `COc1ccc2c3c1O[C@H]1C(OC(=O)c4ccccc4)=CC[C@@]4(OC(=O)c5ccccc5)[C@@H](C2)N(C)CC[C@]314` [(Bz)2-OC] as the compound, how does the “percent of OC released” value read?
Answer: 0%

Question: With `COc1ccc2c3c1O[C@H]1C(OC(=O)c4cccc(O)c4)=CC[C@@]4(O)[C@@H](C2)N(C)CC[C@]314` [Conjugate 3-OH-Bz-OC] as the compound, how does the “percent of OC released” value read?
Answer: 0%

Question: For `COc1ccc2c3c1O[C@H]1C(OC(=O)c4cccc(N)c4)=CC[C@@]4(OC(=O)c5cccc(N)c5)[C@@H](C2)N(C)CC[C@]314` [(3-ABz)2-OC], which “percent of OC released” value is on record?
Answer: 0%

Question: For `COc1ccc2c3c1O[C@H]1C(OC(=O)c4ccccc4N)=CC[C@@]4(O)[C@@H](C2)N(C)CC[C@]314` [Conjugate 2-ABz-OC], which “percent of OC released” value is on record?
Answer: 3%

Question: With `COc1cc(C(=O)OC2=CC[C@@]3(O)[C@H]4Cc5ccc(OC)c6c5[C@@]3(CCN4C)[C@H]2O6)ccc1O` [4-OH-3-MeO-Bz-OC] as the compound, how does the “percent of OC released” value read?
Answer: 0%

same assay, conditions: Water, RT, 1 hour

Question: For `COc1ccc2c3c1O[C@H]1C(OC(=O)/C=C/c4ccccc4)=CC[C@@]4(OC(=O)/C=C/c5ccccc5)[C@@H](C2)N(C)CC[C@]314` [(Cin)2-OC], which “percent of OC released” value is on record?
Answer: 0%

Question: For `COc1ccc2c3c1OC1C(OC(=O)C(C)c4cccc(C(=O)c5ccccc5)c4)=CCC4(O)C(C2)N(C)CCC314` (mixture of isomers) [6-Ketoprofen-OC], which “percent of OC released” value is on record?
Answer: 0%

Question: Which “percent of OC released” value does the source give for `COc1ccc2c3c1O[C@H]1C(OC(=O)c4ccc(O)cc4)=CC[C@@]4(OC(=O)c5ccc(O)cc5)[C@@H](C2)N(C)CC[C@]314` [(4-OH-Bz)2-OC] here?
Answer: 0%

Question: With `COc1ccc2c3c1O[C@H]1C(OC(=O)c4ccccc4O)=CC[C@@]4(O)[C@@H](C2)N(C)CC[C@]314` [Conjugate 2-OH-Bz-OC] as the compound, how does the “percent of OC released” value read?
Answer: 0%

Question: Which “percent of OC released” value does the source give for `COc1ccc2c3c1O[C@H]1C(OC(=O)c4ccccc4)=CC[C@@]4(OC(=O)c5ccccc5)[C@@H](C2)N(C)CC[C@]314` [(Bz)2-OC] here?
Answer: 0%

Question: Which “percent of OC released” value does the source give for `COc1ccc2c3c1O[C@H]1C(OC(=O)c4cccc(O)c4)=CC[C@@]4(O)[C@@H](C2)N(C)CC[C@]314` [Conjugate 3-OH-Bz-OC] here?
Answer: 0%

Question: With `COc1ccc2c3c1O[C@H]1C(OC(=O)c4cccc(N)c4)=CC[C@@]4(OC(=O)c5cccc(N)c5)[C@@H](C2)N(C)CC[C@]314` [(3-ABz)2-OC] as the compound, how does the “percent of OC released” value read?
Answer: 0%

Question: With `COc1ccc2c3c1O[C@H]1C(OC(=O)c4ccccc4N)=CC[C@@]4(O)[C@@H](C2)N(C)CC[C@]314` [Conjugate 2-ABz-OC] as the compound, how does the “percent of OC released” value read?
Answer: <1%

Question: With `COc1cc(C(=O)OC2=CC[C@@]3(O)[C@H]4Cc5ccc(OC)c6c5[C@@]3(CCN4C)[C@H]2O6)ccc1O` [4-OH-3-MeO-Bz-OC] as the compound, how does the “percent of OC released” value read?
Answer: 0%

same assay, conditions: Water, RT, 24 hours

Question: For `COc1ccc2c3c1O[C@H]1C(OC(=O)/C=C/c4ccccc4)=CC[C@@]4(OC(=O)/C=C/c5ccccc5)[C@@H](C2)N(C)CC[C@]314` [(Cin)2-OC], which “percent of OC released” value is on record?
Answer: 0%

Question: With `COc1ccc2c3c1OC1C(OC(=O)C(C)c4cccc(C(=O)c5ccccc5)c4)=CCC4(O)C(C2)N(C)CCC314` (mixture of isomers) [6-Ketoprofen-OC] as the compound, how does the “percent of OC released” value read?
Answer: <1%

Question: Which “percent of OC released” value does the source give for `COc1ccc2c3c1O[C@H]1C(OC(=O)c4ccc(O)cc4)=CC[C@@]4(OC(=O)c5ccc(O)cc5)[C@@H](C2)N(C)CC[C@]314` [(4-OH-Bz)2-OC] here?
Answer: 0%

Question: For `COc1ccc2c3c1O[C@H]1C(OC(=O)c4ccccc4O)=CC[C@@]4(O)[C@@H](C2)N(C)CC[C@]314` [Conjugate 2-OH-Bz-OC], which “percent of OC released” value is on record?
Answer: 0%

Question: For `COc1ccc2c3c1O[C@H]1C(OC(=O)c4ccccc4)=CC[C@@]4(OC(=O)c5ccccc5)[C@@H](C2)N(C)CC[C@]314` [(Bz)2-OC], which “percent of OC released” value is on record?
Answer: 0%

Question: With `COc1ccc2c3c1O[C@H]1C(OC(=O)c4cccc(O)c4)=CC[C@@]4(O)[C@@H](C2)N(C)CC[C@]314` [Conjugate 3-OH-Bz-OC] as the compound, how does the “percent of OC released” value read?
Answer: 0%

Question: Which “percent of OC released” value does the source give for `COc1ccc2c3c1O[C@H]1C(OC(=O)c4cccc(N)c4)=CC[C@@]4(OC(=O)c5cccc(N)c5)[C@@H](C2)N(C)CC[C@]314` [(3-ABz)2-OC] here?
Answer: 0%

Question: Which “percent of OC released” value does the source give for `COc1ccc2c3c1O[C@H]1C(OC(=O)c4ccccc4N)=CC[C@@]4(O)[C@@H](C2)N(C)CC[C@]314` [Conjugate 2-ABz-OC] here?
Answer: <1%

Question: With `COc1cc(C(=O)OC2=CC[C@@]3(O)[C@H]4Cc5ccc(OC)c6c5[C@@]3(CCN4C)[C@H]2O6)ccc1O` [4-OH-3-MeO-Bz-OC] as the compound, how does the “percent of OC released” value read?
Answer: 0%

test: Oral PK in rats: plasma concentrations of oxymorphone by LC-MS/MS; conditions: oxymorphone released, conjugate equivalent to 2 mg/kg freebase oxycodone

Question: Which results are given for `COc1ccc2c3c1OC1C(OC(=O)C(C)c4cccc(C(=O)c5ccccc5)c4)=CCC4(O)C(C2)N(C)CCC314` (mixture of isomers) [6-Ketoprofen-OC]?
Answer: AUC: 4.3 ng·h/mL; Cmax: 3.7 ng/mL; tmax: 15 min

Question: For `COc1ccc2c3c1OC1C(OC(=O)C(C)c4cccc(Oc5ccccc5)c4)=CCC4(O)C(C2)N(C)CCC314` (mixture of isomers) [6-Fenoprofen-OC], which AUC is on record?
Answer: 4.6 ng·h/mL

Question: And the Cmax?
Answer: 3.3 ng/mL

Question: What about the tmax of the same compound?
Answer: 15 min

same assay, conditions: oxymorphone released, relative to oxycodone (OC)

Question: What does the source list for `COc1ccc2c3c1OC1C(OC(=O)C(C)c4cccc(C(=O)c5ccccc5)c4)=CCC4(O)C(C2)N(C)CCC314` (mixture of isomers) [6-Ketoprofen-OC]?
Answer: %-AUC of OC: 62%; %-Cmax of OC: 77%; %-tmax of OC: 100%

Question: What does the source list for `COc1ccc2c3c1OC1C(OC(=O)C(C)c4cccc(Oc5ccccc5)c4)=CCC4(O)C(C2)N(C)CCC314` (mixture of isomers) [6-Fenoprofen-OC]?
Answer: %-AUC of OC: 67%; %-Cmax of OC: 68%; %-tmax of OC: 100%

test: Oral PK in rats: plasma concentrations of released oxycodone by LC-MS/MS; conditions: conjugate equivalent to 2 mg/kg freebase oxycodone

Question: With `COc1ccc2c3c1OC1C(OC(=O)C(C)c4cccc(C(=O)c5ccccc5)c4)=CCC4(O)C(C2)N(C)CCC314` (mixture of isomers) [6-Ketoprofen-OC] as the compound, how does the AUC read?
Answer: 25.5 ng·h/mL

Question: What about the Cmax of the same compound?
Answer: 14.7 ng/mL

Question: And the tmax?
Answer: 15 min

Question: With `COc1ccc2c3c1OC1C(OC(=O)C(C)c4cccc(Oc5ccccc5)c4)=CCC4(O)C(C2)N(C)CCC314` (mixture of isomers) [6-Fenoprofen-OC] as the compound, how does the AUC read?
Answer: 21.6 ng·h/mL

Question: What about the Cmax of the same compound?
Answer: 14.0 ng/mL

Question: And the tmax?
Answer: 15 min

same assay, conditions: relative to oxycodone (OC)

Question: With `COc1ccc2c3c1OC1C(OC(=O)C(C)c4cccc(C(=O)c5ccccc5)c4)=CCC4(O)C(C2)N(C)CCC314` (mixture of isomers) [6-Ketoprofen-OC] as the compound, how does the “%-AUC of OC” value read?
Answer: 81%

Question: What about the “%-Cmax of OC” value of the same compound?
Answer: 91%

Question: And the “%-tmax of OC” value?
Answer: 83%

Question: Which “%-AUC of OC” value does the source give for `COc1ccc2c3c1OC1C(OC(=O)C(C)c4cccc(Oc5ccccc5)c4)=CCC4(O)C(C2)N(C)CCC314` (mixture of isomers) [6-Fenoprofen-OC] here?
Answer: 69%

Question: And the “%-Cmax of OC” value?
Answer: 87%

Question: What about the “%-tmax of OC” value of the same compound?
Answer: 83%
